Results as given in patent US9745261B2, “Inhibitors of the MITF molecular pathway” (THE GENERAL HOSPITAL CORPORATION, priority 2013, dated 2017).

Assays:
Adenosine A2A = biological target: T1, Adenosine A2A (Homo sapiens, UniProt P29274); experiment: Radioligand binding, Adenosine A2A
T1 construct: Eurofins Panlabs, Inc. (contract assay) 200610 (assay number)

Dopamine D1 = biological target: T2, Dopamine D1 (Homo sapiens, UniProt P21728); experiment: Radioligand binding, Dopamine D1
T2 construct: Eurofins Panlabs, Inc. (contract assay)
T2 sequence (P21728 whole entry): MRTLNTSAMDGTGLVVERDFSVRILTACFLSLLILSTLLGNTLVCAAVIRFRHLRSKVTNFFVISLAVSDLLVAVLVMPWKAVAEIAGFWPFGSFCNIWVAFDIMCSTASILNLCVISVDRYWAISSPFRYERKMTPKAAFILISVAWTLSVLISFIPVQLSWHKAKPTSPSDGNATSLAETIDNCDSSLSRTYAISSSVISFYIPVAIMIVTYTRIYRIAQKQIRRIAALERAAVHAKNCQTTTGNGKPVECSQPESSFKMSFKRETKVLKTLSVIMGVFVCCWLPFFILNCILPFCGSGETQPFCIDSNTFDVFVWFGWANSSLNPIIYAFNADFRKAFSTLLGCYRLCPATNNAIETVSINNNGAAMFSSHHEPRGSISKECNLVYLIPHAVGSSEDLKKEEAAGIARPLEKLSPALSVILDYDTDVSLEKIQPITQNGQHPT

Neuropeptide Y Y2 = biological target: T3, Neuropeptide Y Y2 (Homo sapiens, UniProt P49146); experiment: Radioligand binding, Neuropeptide Y Y2
T3 construct: Eurofins Panlabs, Inc
T3 sequence (P49146 whole entry): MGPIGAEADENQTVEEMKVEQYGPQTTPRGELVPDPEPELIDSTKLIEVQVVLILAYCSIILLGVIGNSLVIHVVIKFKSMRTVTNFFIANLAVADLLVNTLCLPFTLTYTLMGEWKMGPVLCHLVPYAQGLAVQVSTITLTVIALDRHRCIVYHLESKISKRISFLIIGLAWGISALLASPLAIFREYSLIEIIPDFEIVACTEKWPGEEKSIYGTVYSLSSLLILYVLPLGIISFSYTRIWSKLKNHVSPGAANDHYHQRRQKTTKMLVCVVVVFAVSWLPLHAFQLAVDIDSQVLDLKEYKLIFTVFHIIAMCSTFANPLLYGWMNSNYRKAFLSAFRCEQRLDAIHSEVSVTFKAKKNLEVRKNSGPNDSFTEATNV

SK-MEL-5 cells = experiment: SK-MEL-5 cell cytotoxicity assay (CellTiter-Glo); assay type: cell-based, human; settings: Homo sapiens, SK-MEL-5; 24 hours, CellTiter-Glo; read-out: Target Potency IC50 (μM) SKMEL5
Description: (§1) SK-MEL-5 cells were treated with compounds for 24 hours, and then cell viability was measured using the CellTiter-Glo Assay (Promega), a luciferase-based reagent that measures cellular ATP levels. The compounds were tested at different concentrations to determine IC50 values. Compounds that were active in the primary assay and toxic below 30 μM at 24 hours were considered for probe development. Data were normalized against DMSO in Genedata Screener's Assay Analyzer.
(§2) SK-MEL-5 cells were maintained in DMEM (10% FBS, 1% Pen-Strep-Glutamine). Cells were fluid changed every 3 days and/or split upon reaching 100% confluency. For secondary assays, cells were thawed at 4 million cells per Falcon T175 flask. After 3 days, the cells were fluid changed, after 3 more days cells were passed to a Corning Triple flask (10-15 million cells) and plated after 3 days in the triple flask.
Day 1 • 1. Plate SK-MEL-5 cells at 3,000 per well in 30 uL media (phenol red free DMEM/10% Fetal Bovine Serum/Penicillin/Streptomycin/L-Glutamine) • 2. Use Corning white 384-well, square, opaque-bottomed plates (Corning Catalog No. 8867BC)
Day 2 • 3. Pin 100 nL compound/DMSO solution (Cybi Well) into assay plates. (For HTS, required sentinel pinning with the positive control, parthenolide (6 mM)) • 4. […]
(§3) Day 3 • 5. […] Read on the Perkin-Elmer EnVision plate reader with luminescence (LUM) settings for 0.1 sec per well. […]

MALME-3M cells = experiment: MALME-3M cell cytotoxicity assay (CellTiter-Glo); assay type: cell-based, human; settings: Homo sapiens, Malme-3M, read-out: Target Potency IC50 (μM) MALME-3M; 24 hours, CellTiter-Glo
Description: as §1, with “MALME-3M” for “SK-MEL-5”
as §2, with “MALME-3M” for “SK-MEL-5”, “IMDM (20%” for “DMEM (10%”, “6” for “4”, “days,” for “days, the”, “(15-18” for “(10-15”
Day 1 • 1. Plate MALME-3M cells at 3,000 per well in 30 uL media (phenol red free IMDM/10% Fetal Bovine Serum/Penicillin/Streptomycin/L-Glutamine) • 2. Use Corning white 384-well, square, opaque-bottomed plates (Corning Catalog No. 8867BC)
Day 2 • 3. Pin 100 nL compound/DMSO solution (Cybi Well) into assay plates, including the positive control. • 4. Incubate 24 hours at 37° C. in Liconic incubator.
as §3

T1 sequence (P29274 whole entry): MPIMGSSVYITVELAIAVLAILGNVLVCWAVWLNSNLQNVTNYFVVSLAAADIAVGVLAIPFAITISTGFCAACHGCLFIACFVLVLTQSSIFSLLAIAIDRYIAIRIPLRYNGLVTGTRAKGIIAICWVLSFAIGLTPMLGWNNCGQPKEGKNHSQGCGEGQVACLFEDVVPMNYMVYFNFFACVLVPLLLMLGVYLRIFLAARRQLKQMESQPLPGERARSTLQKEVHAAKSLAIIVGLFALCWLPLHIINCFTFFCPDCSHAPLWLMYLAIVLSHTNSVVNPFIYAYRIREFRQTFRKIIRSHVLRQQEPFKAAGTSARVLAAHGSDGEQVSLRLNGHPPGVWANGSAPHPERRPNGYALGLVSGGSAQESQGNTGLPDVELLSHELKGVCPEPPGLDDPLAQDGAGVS

SMILES | inhibition at 10 µM (Adenosine A2A) | inhibition at 10 µM (Dopamine D1) | inhibition at 10 µM (Neuropeptide Y Y2) | IC50 (SK-MEL-5 cells) | IC50 (MALME-3M cells)
NS(=O)(=O)c1ccc(NC2=CC(=O)c3ccccc3C2=O)cc1 [Example 1, 4-((1,4-Dioxo-1,4-dihydronaphthalen-2-yl)amino)benzenesulfonamide] | 50% | 21% | 5% | – | –
NS(=O)(=O)c1ccc(NC2=CC(=O)c3ccccc3C2=O)cc1 [4-((1,4-dioxo-1,4-dihydronaphthalen-2-yl)amino)benzenesulfonamide] | – | – | – | 0.75 µM | 0.88 µM
